Where “and” joins values, the source holds several entries; their conditions need not be identical. Identical values can stand only once. Inconclusive results and toxic doses are left out. The calls were made as follows: active = survival T/C of 150% or more; inactive = T/C below 125% in these data.
System: CD2F1 mice, L1210 leukemia ip, survival T/C
Experiment: NCI In Vivo Anticancer Drug Screen. Data for tumor model L1210 Leukemia (intraperitoneal) in CD2F1 (CDF1) mice
Conditions: higher = longer survival
How it was run: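 Read-out first: treated-group measurement over vehicle-control measurement, expressed as a ratio. Animals bore a transplanted tumor line and were dosed with compound or vehicle.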

[1] = endpoint: mean survival time, dose: 100.0 mg/kg/injection, schedule: Q04DX003 (ip), vehicle: saline
[2] = endpoint: mean survival time, dose: 200.0 mg/kg/injection, schedule: Q04DX003 (ip), vehicle: saline
[3] = endpoint: mean survival time, dose: 400.0 mg/kg/injection, schedule: Q04DX003 (ip), vehicle: saline
[4] = endpoint: mean survival time, dose: 50.0 mg/kg/injection, schedule: Q01DX009 (ip), vehicle: saline with Tween-80
[5] = endpoint: mean survival time, dose: 100.0 mg/kg/injection, schedule: Q01DX009 (ip), vehicle: saline with Tween-80
[6] = endpoint: mean survival time, dose: 200.0 mg/kg/injection, schedule: Q01DX009 (ip), vehicle: saline with Tween-80
[7] = endpoint: mean survival time, dose: 50.0 mg/kg/injection, schedule: Q01DX009 (ip), vehicle: saline
[8] = endpoint: mean survival time, dose: 100.0 mg/kg/injection, schedule: Q01DX009 (ip), vehicle: saline
[9] = endpoint: mean survival time, dose: 100.0 mg/kg/injection, schedule: Q04DX003 (ip), vehicle: saline with Tween-80
[10] = endpoint: mean survival time, dose: 200.0 mg/kg/injection, schedule: Q04DX003 (ip), vehicle: saline with Tween-80
[11] = endpoint: mean survival time, dose: 400.0 mg/kg/injection, schedule: Q04DX003 (ip), vehicle: saline with Tween-80
[12] = endpoint: mean survival time, dose: 100.0 mg/kg/injection, schedule: Q01DX001 (ip), vehicle: saline with Tween-80
[13] = endpoint: mean survival time, dose: 200.0 mg/kg/injection, schedule: Q01DX001 (ip), vehicle: saline with Tween-80
[14] = endpoint: mean survival time, dose: 400.0 mg/kg/injection, schedule: Q01DX001 (ip), vehicle: saline with Tween-80
[15] = endpoint: mean survival time, dose: 200.0 mg/kg/injection, schedule: Q01DX009 (ip), vehicle: saline
[16] = endpoint: mean survival time, dose: 50.0 mg/kg/injection, schedule: Q01DX009 (ip), vehicle: Klucel (hydroxypropylcellulose) (HPC)
[17] = endpoint: mean survival time, dose: 100.0 mg/kg/injection, schedule: Q01DX009 (ip), vehicle: Klucel (hydroxypropylcellulose) (HPC)

Measured: T/C

CCOC(=O)CCCSc1n[nH]c(=O)[nH]c1=O
inactive: endpoint: mean survival time, dose: 12.5 mg/kg/injection, schedule: Q01DX005 (ip), vehicle: distilled water + Tween-80 100 % of control | endpoint: mean survival time, dose: 25.0 mg/kg/injection, schedule: Q01DX005 (ip), vehicle: distilled water + Tween-80 102 % of control | endpoint: mean survival time, dose: 50.0 mg/kg/injection, schedule: Q01DX005 (ip), vehicle: distilled water + Tween-80 96 % of control | endpoint: mean survival time, dose: 100.0 mg/kg/injection, schedule: Q01DX005 (ip), vehicle: distilled water + Tween-80 91 % of control | endpoint: mean survival time, dose: 200.0 mg/kg/injection, schedule: Q01DX005 (ip), vehicle: distilled water + Tween-80 92 % of control

Cc1cccc(CCc2cccc(C)n2)n1
inactive: [1] 103 % of control | [2] 103 % of control | [3] 103 % of control

Cc1ccc(NC(=O)OCCOc2ccc([N+](=O)[O-])cc2)c(C)c1
inactive: [4] 93 % of control | [5] 98 % of control | [6] 89 % of control

C1CN2CN3CCN(CN1C3)C2
inactive: endpoint: mean survival time, dose: 12.5 mg/kg/injection, schedule: Q01DX009 (ip), vehicle: saline 97 % of control | endpoint: mean survival time, dose: 25.0 mg/kg/injection, schedule: Q01DX009 (ip), vehicle: saline 109 % of control | [7] 105 % of control | [8] 118 % of control

COC(=O)C(C)NC(=O)CCNC(=O)OCc1ccccc1 (centres undefined)
inactive: [9] 93 % of control | [10] 93 % of control | [11] 90 % of control

COc1ccc(N=C(C(=O)c2ccccc2)c2ccccc2)cc1
inactive: [12] 95 % of control | [13] 93 % of control | [14] 100 % of control

COc1cc2c(c(OC)c1OC)-c1ccc(SC)c(=O)cc1[C@@H](NC(=O)NCCCl)CC2
inactive: endpoint: mean survival time, dose: 1.56 mg/kg/injection, schedule: Q01DX005 (ip), vehicle: water 103 % of control | endpoint: mean survival time, dose: 3.13 mg/kg/injection, schedule: Q01DX005 (ip), vehicle: water 103 % of control | endpoint: mean survival time, dose: 6.25 mg/kg/injection, schedule: Q01DX005 (ip), vehicle: water 122 % of control | endpoint: mean survival time, dose: 6.25 mg/kg/injection, schedule: Q01DX009 (ip), vehicle: water 123 % of control | endpoint: mean survival time, dose: 12.5 mg/kg/injection, schedule: Q01DX005 (ip), vehicle: water 117 % of control | endpoint: mean survival time, dose: 12.5 mg/kg/injection, schedule: Q01DX009 (ip), vehicle: water 123 % of control

NS(=O)(=O)c1cccc([N+](=O)[O-])c1
inactive: [12] 95 % of control | [13] 92 % of control | [14] 97 % of control

O=S(=O)(CC(Br)C(Br)CO)c1ccccc1 (centres undefined)
inactive: endpoint: median survival time, dose: 25.0 mg/kg/injection, schedule: Q04DX003 (ip), vehicle: saline with Tween-80 111 % of control | endpoint: median survival time, dose: 50.0 mg/kg/injection, schedule: Q04DX003 (ip), vehicle: saline with Tween-80 122 % of control | endpoint: median survival time, dose: 100.0 mg/kg/injection, schedule: Q04DX003 (ip), vehicle: saline with Tween-80 111 % of control | endpoint: median survival time, dose: 200.0 mg/kg/injection, schedule: Q04DX003 (ip), vehicle: saline with Tween-80 100 % of control

O=CNNC(=S)Nc1ccccc1
inactive: [4] 100 % of control | [5] 96 % of control | [6] 96 % of control

COC(=O)C1(N)CCCC1
inactive: endpoint: mean survival time, dose: 25.0 mg/kg/injection, schedule: Q04DX003 (ip), vehicle: saline 101 % of control | endpoint: mean survival time, dose: 50.0 mg/kg/injection, schedule: Q04DX003 (ip), vehicle: saline 100 % of control | [9] 105 % of control | [1] 113 % of control | [15] 121 % of control | [10] 122 % of control

Cc1ccccc1OCC(=O)O
inactive: [7] 104 % of control | [8] 101 % of control | [15] 93 % of control

O=C(Nc1ccccc1O)/C(Cl)=C/Cl
inactive: [5] 104 % of control

CC12CCC(/C(=C/NNc3ccc([N+](=O)[O-])cc3[N+](=O)[O-])C1=O)C2(C)C (centres undefined)
inactive: [9] 93 % of control | [10] 90 % of control | [11] 96 % of control

O=P(O)(O)c1ccccc1 (tested in a mixture with another compound)
inactive: [1] 100 % of control | [2] 91 % of control | [3] 95 % of control

CC(=O)Oc1ccc(C(=O)O)cc1
inactive: [16] 91 % of control | [17] 98 % of control

NC(=O)c1[nH]nc(C2OC(CO)C(O)C2O)c1O (centres undefined)
inactive: endpoint: mean survival time, dose: 0.25 mg/kg/injection, schedule: Q04DX003 (ip), vehicle: saline 105 % of control | endpoint: mean survival time, dose: 0.5 mg/kg/injection, schedule: Q04DX003 (ip), vehicle: saline 97 % of control | endpoint: mean survival time, dose: 1.0 mg/kg/injection, schedule: Q04DX003 (ip), vehicle: saline 96 % of control | endpoint: mean survival time, dose: 2.0 mg/kg/injection, schedule: Q04DX003 (ip), vehicle: saline 97 % of control | endpoint: median survival time, dose: 0.25 mg/kg/injection, schedule: Q01DX009 (ip), vehicle: saline 98 % of control | endpoint: median survival time, dose: 0.5 mg/kg/injection, schedule: Q01DX009 (ip), vehicle: saline 111 % of control | endpoint: median survival time, dose: 1.0 mg/kg/injection, schedule: Q01DX009 (ip), vehicle: saline 121 % of control | endpoint: median survival time, dose: 1.0 mg/kg/injection, schedule: Q04DX003 (ip), vehicle: saline 102 % of control | endpoint: median survival time, dose: 1.88 mg/kg/injection, schedule: Q04DX003 (ip), vehicle: saline 117 % of control | endpoint: median survival time, dose: 2.0 mg/kg/injection, schedule: Q01DX009 (ip), vehicle: saline 120 % of control | endpoint: median survival time, dose: 3.75 mg/kg/injection, schedule: Q04DX003 (ip), vehicle: saline 110 % of control | endpoint: median survival time, dose: 4.0 mg/kg/injection, schedule: Q01DX009 (ip), vehicle: saline 110 % of control | endpoint: median survival time, dose: 7.5 mg/kg/injection, schedule: Q04DX003 (ip), vehicle: saline 116 % of control | endpoint: median survival time, dose: 8.0 mg/kg/injection, schedule: Q01DX009 (ip), vehicle: saline 88 % of control | endpoint: median survival time, dose: 8.0 mg/kg/injection, schedule: Q04DX003 (ip), vehicle: saline 117 % of control and 120 % of control | endpoint: median survival time, dose: 15.0 mg/kg/injection, schedule: Q04DX003 (ip), vehicle: saline 118 % of control | endpoint: median survival time, dose: 16.0 mg/kg/injection, schedule: Q01DX009 (ip), vehicle: saline 101 % of control | endpoint: median survival time, dose: 16.0 mg/kg/injection, schedule: Q04DX003 (ip), vehicle: saline 111 % of control | endpoint: median survival time, dose: 30.0 mg/kg/injection, schedule: Q04DX003 (ip), vehicle: saline 97 % of control | endpoint: median survival time, dose: 32.0 mg/kg/injection, schedule: Q04DX003 (ip), vehicle: saline 118 % of control

CC12CC(C(=O)O)C3(O)CC(C)(C1)CC(C)(C2)C3 (centres undefined) (tested in a mixture with another compound)
inactive: endpoint: mean survival time, dose: 12.5 mg/kg/injection, schedule: Q01DX009 (ip), vehicle: Klucel (hydroxypropylcellulose) (HPC) 95 % of control and 107 % of control | endpoint: mean survival time, dose: 25.0 mg/kg/injection, schedule: Q01DX009 (ip), vehicle: Klucel (hydroxypropylcellulose) (HPC) 101 % of control and 109 % of control | [16] 87 % of control and 107 % of control | [17] 98 % of control and 110 % of control | endpoint: mean survival time, dose: 200.0 mg/kg/injection, schedule: Q01DX009 (ip), vehicle: Klucel (hydroxypropylcellulose) (HPC) 101 % of control and 104 % of control | endpoint: mean survival time, dose: 400.0 mg/kg/injection, schedule: Q01DX009 (ip), vehicle: Klucel (hydroxypropylcellulose) (HPC) 98 % of control

O=C(Cl)C12CC3CC(CC(C3)C1)C2
inactive: endpoint: mean survival time, dose: 12.5 mg/kg/injection, schedule: Q01DX009 (ip), vehicle: other 94 % of control | endpoint: mean survival time, dose: 25.0 mg/kg/injection, schedule: Q01DX009 (ip), vehicle: other 94 % of control | endpoint: mean survival time, dose: 50.0 mg/kg/injection, schedule: Q01DX009 (ip), vehicle: other 91 % of control | endpoint: mean survival time, dose: 100.0 mg/kg/injection, schedule: Q01DX009 (ip), vehicle: other 91 % of control

N#CCCC#N (tested in a mixture with another compound)
inactive: endpoint: mean survival time, dose: 50.0 mg/kg/injection, schedule: Q04DX002 (ip), vehicle: saline with Tween-80 96 % of control and 100 % of control | endpoint: mean survival time, dose: 100.0 mg/kg/injection, schedule: Q04DX002 (ip), vehicle: saline with Tween-80 96 % of control and 107 % of control | endpoint: mean survival time, dose: 200.0 mg/kg/injection, schedule: Q04DX002 (ip), vehicle: saline with Tween-80 100 % of control and 96 % of control | endpoint: mean survival time, dose: 400.0 mg/kg/injection, schedule: Q04DX002 (ip), vehicle: saline with Tween-80 92 % of control and 100 % of control
